Series [1] in a line: Serum clinical chemistries in male Sprague-Dawley rats after dietary admixture. The conditions noted are these: 0.3% diet, 4 days, N=5. The class given is in vivo, Sprague-Dawley rat. From the text:
(§1) A typical experiment consists of 4-6 groups of rats (N=5 per group) with 1 group being a control which receives no MDL compound and the other groups being treated with 0.3% MDL compound. Some of the compounds are either repeated at 0.3% or evaluated again at the lower dose of 0.1%. House Male Sprague-Dawley rats, 50-100 g, (Harlan Laboratories, Indianapolis, Ind.) in groups of 5, feeding ad libitum water and Purina Rodent chow (#5002) with or without MDL compound as a dietary admixture for 4 days. Make dietary admixtures (0.3%) by mixing 1.2 grams of an MDL compound with 400 grams of Purina rodent chow (#5002). Mix the MDL compound with approximately 50 grams of food using a mortar and pestle. This is added to the remainder of the food and mixed for 3 hours on a rotary mixer. In the morning of day 5, anesthetize non-fasted rats with carbon dioxide, and collect blood by cardiac puncture. Sacrifice rats by cervical dislocation. Record body weights and liver weights in grams. Record food consumption as grams.cndot.day^-1 .cndot.rat^-1. Deaths are recorded as mortality. Use aliquots of fresh serum for clinical chemistries, thiobarbituric acid reactive substances (TBARS) and conjugated diene measurements. Freeze aliquots of serum (~0.5mL) and whole livers at -20° C. for compound and metabolite concentration determination at a later time.
Allow blood to clot at room temperature for 30 minutes. Obtain serum after centrifugation for 10 min at 4° C. at 3000 rpm in a Beckman J-6M/E centrifuge with a JS-4.2 rotor. Analyze fresh serum by a COBAS MIRA S autoanalyzer (Roche Diagnostics) using Roche diagnostic reagents for the following clinical chemistry measurements: alkaline phosphatase (ALP, kit #44553), alanine transaminase (ALT, kit #42375), aspartate aminotransferase (AST, kit #42381), total cholesterol (CHOL, kit #44334), triglyceride (TG, kit #44120), and glucose (GLU, kit #44558). Calculate ALP, ALT, and AST as units/L. Calculate cholesterol, triglycerides, and glucose as mg/dL.

Series [2] concerns oxidation of serum lipids. Kind of series: Thiobarbituric acid reactive substances (TBARS) assay in serum of treated rats. Type of series: in vivo, Sprague-Dawley rat. The conditions noted are these: 0.3% diet, 4 days, male rats, N=5; CuSO4 oxidation of serum, 37° C., 3 hr.
Text: as §1, with “Sacrifice rats by cervical dislocation. Record body weights and liver weights in grams. Record food consumption as grams.cndot.day^-1 .cndot.rat^-1.” left out, “Use aliquots of fresh serum for clinical chemistries, thiobarbituric acid reactive substances (TBARS) and conjugated diene measurements. Freeze aliquots of serum (~0.5mL) and whole livers at -20° C. for compound and metabolite concentration determination at a later time.” left out
In this assay the oxidation of serum lipids is initiated with CuSO4, resulting in the formation of aldehydes, such as malondialdehyde (MDA). Upon incubation with thiobarbituric acid, the absorbance of the aldehydes can be detected at 530-540 nm. […] Measure absorbances at 540 nm using a Biotek model EL311 microplate reader. The nmoles of MDA produced are calculated from a standard curve of 0 to 10 nmoles of MDA prepared from malonaldehyde bis(dimethylacetal). […]

A short description of series [3]: Animal parameters in male Sprague-Dawley rats. The class given is in vivo, Sprague-Dawley rat. The conditions noted are these: 0.3% diet, 4 days; for body wt. as a percent of control / food (grams eaten per day per rat) as a percent of control / lw/bw (liver weight/body weight) as a percent of control: N=5; for mortality at 96 h: rat, in vivo, po, N=5, read-out: mortality (deaths per group).
Text: as §1

The test system of a further series is oxidation of lipids. Kind of series: Conjugated diene determination (lag phase) in pooled serum of treated rats. The conditions noted are these: 0.3% diet, 4 days; mean of 2 determinations of pooled samples, N=5; control = 61 min. The class given is in vivo, Sprague-Dawley rat.
Text: as §1, with “Use aliquots of fresh serum for clinical chemistries, thiobarbituric acid reactive substances (TBARS) and conjugated diene measurements. Freeze aliquots of serum (~0.5mL) and whole livers at -20° C. for compound and metabolite concentration determination at a later time.” left out
Conjugated diene lag phase is another indicator of the oxidation of lipids. […] Measure the absorbances of all cuvettes and set the instrument baseline to zero using the lowest absorbing sample. […] Record the absorbance of each cuvette at 2 min intervals for a period of 840 min. […]

The next series deals with ICAM-1. The conditions noted are these: vascular endothelial cells; Mauri, N. et al.; cited from earlier work.

For orientation: mortality means the share of the test organisms that died.

As to `CC(C)(C)c1cc(OC[Si](C)(C)c2ccco2)cc(C(C)(C)C)c1O` [106,939], in series [1], the “ALP (alkaline phosphatase) as a percent of control” value was found to be 123%, the “ALT (alanine aminotransferase) as a percent of control” value is listed as 92%, the “AST (aspartate aminotransferase) as a percent of control” value is listed as 106% and the “CHOL (total cholesterol) as a percent of control” value was determined as 120%. In addition, in series [1], the “GLUC (glucose) as a percent of control” value was determined as 83% and the “TRIG (triglycerides) as a percent of control” value is recorded as 108%. Moreover, in series [2], the “TBARS (thiobarbituric acid reactive substances) as a percent of control” value turned out to be 64%. In addition, in series [3], the “body wt. as a percent of control” value is 92%, the “food (grams eaten per day per rat) as a percent of control” value is given as 88%, the “lw/bw (liver weight/body weight) as a percent of control” value stood at 130% and the mortality at 96 h was determined as 0%.

Consider `CC(C)(C)c1cc(OC[Si](C)(C)c2cccs2)cc(C(C)(C)C)c1O` [107,965], for which, in series [1], the “ALP (alkaline phosphatase) as a percent of control” value amounted to 137%, the “ALT (alanine aminotransferase) as a percent of control” value came out at 96%, the “AST (aspartate aminotransferase) as a percent of control” value is 89% and the “CHOL (total cholesterol) as a percent of control” value is 121%. Besides, in series [1], the “GLUC (glucose) as a percent of control” value is reported as 86% and the “TRIG (triglycerides) as a percent of control” value stood at 90%. Also, the “TBARS (thiobarbituric acid reactive substances) as a percent of control” value in series [2] was 57%. Moreover, the “CONJ. DIENE (conjugated diene lag phase)” value in the series on oxidation of lipids is 273 min. In series [3], the “body wt. as a percent of control” value turned out to be 84%, the “food (grams eaten per day per rat) as a percent of control” value was 84%, the “lw/bw (liver weight/body weight) as a percent of control” value is on record as 118% and the mortality at 96 h came to 0%.

For `CC(=O)N[C@@H](CS)C(=O)O` [N-acetylcysteine], the “inhibition of cytokine-induced expression of ICAM-1” value with ICAM-1 is given as “but not ICAM-1”.

Consider `S=C(S)N1CCCC1` [pyrollidine dithiocarbamate], for which the “inhibition of cytokine-induced expression of ICAM-1” value in the series on ICAM-1 is on record as “but not ICAM-1”.

These data come from patent US6121463A, “Alkyl-4-silylheterocyclic phenols and thiophenols useful as antioxidant agents” (priority 1998, dated 2000).
